Values of other authors in US20070238698A1, “Method for manufacturing drinking water having chitosan” (Hsien-Chih Lin, priority 2006, published 2007).

Assays:
Conditions in all cases: added to drinking water; experiments to animals
inoculated tumors = test system: inoculated tumors
[1] = test system: huge corrosion cell having ability of immunity
enteric microflora = test system: enteric microflora

## chitosan oligosaccharide
Inoculated tumors
  effect on inoculated tumors: reduced the inoculated tumors
[1]
  effect on huge corrosion cell having ability of immunity: increase the huge corrosion cell having ability of immunity
Enteric microflora
  effect on enteric microflora of animals: improve the enteric microflora of animals
